In patent US8859535B2, “Hydroxy substituted isoquinolinone derivatives” (Novartis AG, priority 2011, dated 2014):

Columns and labels:
[1] = molecular target: T1, human MDM4 protein (amino acids 2-185) (Homo sapiens, UniProt O15151); assay: p53-MDM4 TR-FRET assay (p53-MDM4 Assay 1); type: binding; details: 2.5 nM MDM4-biotinylated, 10 nM Cy5-p53 peptide; read-out: IC50 (μM) of p53-Hdm4 inhibition (TR-FRET) Assay 1
T1 construct: human MDM4 protein (amino acids 2-185); made in house
T1 sequence (O15151 2-185): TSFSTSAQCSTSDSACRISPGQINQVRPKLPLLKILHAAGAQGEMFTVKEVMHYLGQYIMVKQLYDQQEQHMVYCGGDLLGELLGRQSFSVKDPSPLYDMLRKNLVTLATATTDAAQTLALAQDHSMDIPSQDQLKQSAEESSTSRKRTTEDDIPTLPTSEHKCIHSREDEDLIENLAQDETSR
Protocol: (§1) Time Resolved Fluorescence Energy Transfer (TR-FRET) Assay
(§2) The inhibition of p53-MDM2 and p53-MDM4 interactions is measured by time resolved fluorescence energy transfer (TR-FRET). Fluorescence energy transfer (or Foerster resonance energy transfer) describes an energy transfer between donor and acceptor fluorescent molecules. For this assay, human MDM2 protein (amino acids 2-188) and human MDM4 protein (amino acids 2-185), tagged with a C-terminal biotin moiety, are used in combination with a Europium labeled streptavidin (Perkin Elmer, Inc., Waltham, Mass., USA) serving as the donor fluorophore. The p53 derived, Cy5 labeled peptide Cy5-TFSDLWKLL (p53 aa18-26) is the energy acceptor. Upon excitation of the donor molecule at 340 nm, binding interaction between MDM2 or MDM4 and the p53 peptide induces energy transfer and enhanced response at the acceptor emission wavelength at 665 nm. Disruption of the formation of the p53-MDM2 or p53-MDM4 complex due to an inhibitor molecule binding to the p53 binding site of MDM2 or MDM4 results in increased donor emission at 620 nm. The ratiometric FRET assay readout is calculated from the raw data of the two distinct fluorescence signals measured in time resolved mode (fluorescence 665 nm/fluorescence 620 nm×1000).
(§3) After addition of 1.25 nM MDM2-biotinylated or 2.5 nM MDM4-biotinylated (internal preparations), and 0.625 nM Europium labeled streptavidin (Perkin Elmer), the solution is pre-incubated for 15 minutes at room temperature, then 10 nM Cy5-p53 peptide (internal preparation) is added before an incubation at room temperature for 15 minutes prior to reading the plate. For measurement of samples, a Victor II microplate reader (Perkin Elmer) is used with the following settings: Excitation 340 nm, Emission Donor 620 nm and Emission Acceptor 665 nm. IC50 values are calculated by curve fitting using XLfit. If not specified, reagents are purchased from Sigma-Aldrich Chemie GmBH, Buchs, Switzerland.
(§4) This assay was used to evaluate compounds displaying inhibition of p53-MDM2 interaction and p53-MDM4 interaction at IC50s of 0.005 to 50 μM (p53-MDM2 Assay 1 and p53-MDM4 Assay 1, respectively). For selected compounds displaying IC50s between […] on MDM2, a slightly modified assay is used with the following adaptations: 0.1 nM MDM2, 0.1 nM Europium labeled streptavidin and Tecan genios Pro is used as a microplate reader for the fluorescence measurements (p53-MDM2 Assay 2).

[2] = molecular target: T2, human MDM2 protein (amino acids 2-188) (Homo sapiens, UniProt Q00987); assay: p53-MDM2 TR-FRET assay (p53-MDM2 Assay 1); type: binding; details: 1.25 nM MDM2-biotinylated, 10 nM Cy5-p53 peptide; read-out: IC50 (μM) of p53-Hdm2 inhibition (TR-FRET) Assay 1
T2 construct: human MDM2 protein (amino acids 2-188); made in house
T2 sequence (Q00987 2-188): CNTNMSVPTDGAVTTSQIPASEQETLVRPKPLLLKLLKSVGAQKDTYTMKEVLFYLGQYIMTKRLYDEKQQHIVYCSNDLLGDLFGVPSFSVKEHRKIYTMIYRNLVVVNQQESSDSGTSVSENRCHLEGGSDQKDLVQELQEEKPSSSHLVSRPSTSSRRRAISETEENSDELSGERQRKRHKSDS
Protocol: as §1, §2, §3, §4

Row | Compound | IC50 [1] | IC50 [2]
1 | COc1cc2c(cc1OC(C)C)[C@H](c1ccc(Cl)cc1)N(c1ccc(C(C)(O)C3CCN(S(C)(=O)=O)CC3)cc1)C(=O)C2 (stereo partly drawn) [Example 81, (S)-1-(4-Chloro-phenyl)-2-{4-[1-hydroxy-1-(1-methanesulfonyl-piperidin-4-yl)-ethyl]-phenyl}-7-isopropoxy-6-methoxy-1,4-dihydro-2H-isoquinolin-3-one] | 5.11 µM | 0.0057 µM
2 | COc1cc2c(cc1OC(C)C)[C@H](c1ccc(Cl)cc1)N(c1ccc(C(C)(O)C3CCN(C(=O)C(F)F)CC3)cc1)C(=O)C2 (stereo partly drawn) [Example 87, (S)-1-(4-Chloro-phenyl)-2-(4-{1-[1-(2,2-difluoro-acetyl)-piperidin-4-yl]-1-hydroxy-ethyl}-phenyl)-7-isopropoxy-6-methoxy-1,4-dihydro-2H-isoquinolin-3-one] | 23.9 µM | 0.0287 µM
3 | CNC(=O)N1CCC(C(C)(O)c2ccc(N3C(=O)Cc4cc(OC)c(OC(C)C)cc4[C@@H]3c3ccc(Cl)cc3)cc2)CC1 (stereo partly drawn) [Example 79, 4-(1-{4-[(S)-1-(4-Chloro-phenyl)-7-isopropoxy-6-methoxy-3-oxo-3,4-dihydro-1H-isoquinolin-2-yl]-phenyl}-1-hydroxy-ethyl)-piperidine-1-carboxylic acid methylamide] | 5.63 µM | 0.0052 µM
4 | COc1cc2c(cc1OC(C)C)[C@H](c1ccc(Cl)cc1)N(c1ccc(C(C)(O)C3CN(C(=O)N(C)C)C3)cc1)C(=O)C2 (stereo partly drawn) [Example 68, 3-(1-{4-[(S)-1-(4-Chloro-phenyl)-7-isopropoxy-6-methoxy-3-oxo-3,4-dihydro-1H-isoquinolin-2-yl]-phenyl}-1-hydroxy-ethyl)-azetidine-1-carboxylic acid dimethylamide] | 15 µM | 0.0152 µM
5 | COc1cc2c(cc1OC(C)C)[C@H](c1ccc(Cl)cc1)N(c1ccc(C(C)(O)C3CCCCC3)cc1)C(=O)C2 (stereo partly drawn) [Example 63, (S)-1-(4-Chloro-phenyl)-2-[4-(1-cyclohexyl-1-hydroxy-ethyl)-phenyl]-7-isopropoxy-6-methoxy-1,4-dihydro-2H-isoquinolin-3-one] | 40.5 µM | 0.0154 µM
6 | COc1cc2c(cc1OC(C)C)[C@H](c1ccc(Cl)cc1)N(c1ccc(C(C)(O)c3ccncc3)cn1)C(=O)C2 (stereo partly drawn) [Example 12, (S)-1-(4-Chloro-phenyl)-2-[5-(1-hydroxy-1-pyridin-4-yl-ethyl)-pyridin-2-yl]-7-isopropoxy-6-methoxy-1,4-dihydro-2H-isoquinolin-3-one] | 23.9 µM | 0.0195 µM
7 | COc1cc2c(cc1OC(C)C)[C@H](c1ccc(Cl)cc1)N(c1ccc(C(C)(O)C3CC[S+]([O-])CC3)cc1)C(=O)C2 (stereo partly drawn) [Example 169, (S)-1-(4-Chloro-phenyl)-2-{4-[1-hydroxy-1-(1-oxo-hexahydro-1-thiopyran-4-yl)-ethyl]-phenyl}-7-isopropoxy-6-methoxy-1,4-dihydro-2H-isoquinolin-3-one] | 8.3 µM | 0.0096 µM
8 | COc1cc2c(cc1OC(C)C)[C@H](c1ccc(Cl)cc1)N(c1ccc(C(C)(O)c3ccc(F)cc3)cc1)C(=O)C2 (stereo partly drawn) [Example 6, (S)-1-(4-Chloro-phenyl)-2-{4-[1-(4-fluoro-phenyl)-1-hydroxy-ethyl]-phenyl}-7-isopropoxy-6-methoxy-1,4-dihydro-2H-isoquinolin-3-one] | 61.8 µM | 0.0343 µM
9 | COc1cc2c(cc1OC(C)C)[C@H](c1ccc(Cl)cc1)N(c1ccc(C(C)(O)C3CCN(C(C)C)CC3)cc1)C(=O)C2 (stereo partly drawn) [Example 78, (S)-1-(4-Chloro-phenyl)-2-{4-[1-hydroxy-1-(1-isopropyl-piperidin-4-yl)-ethyl]-phenyl}-7-isopropoxy-6-methoxy-1,4-dihydro-2H-isoquinolin-3-one] | 3.18 µM | 0.0043 µM
10 | COc1cc2c(cc1OC(C)C)[C@H](c1ccc(Cl)cc1)N(c1ccc([C@@](C)(O)C3CCOCC3)c(F)c1)C(=O)C2 (single isomer, unassigned) [Example 39] | 1.52 µM | 0.0023 µM
11 | COc1cc2c(cc1OC(C)C)[C@H](c1ccc(Cl)cc1)N(c1ccc(C(O)C3CCCCC3)cc1)C(=O)C2 (stereo partly drawn) [Example 8, (S)-1-(4-Chloro-phenyl)-2-[4-(cyclohexyl-hydroxy-methyl)-phenyl]-7-isopropoxy-6-methoxy-1,4-dihydro-2H-isoquinolin-3-one] | 61.3 µM | 0.0316 µM
12 | COc1cc2c(cc1OC(C)C)[C@H](c1ccc(Cl)cc1)N(c1ccc(C(C)(O)C3CCN(C(C)=O)CC3)cc1)C(=O)C2 (stereo partly drawn) [Example 31, (S)-2-{4-[1-(1-Acetyl-piperidin-4-yl)-1-hydroxy-ethyl]-phenyl}-1-(4-chloro-phenyl)-7-isopropoxy-6-methoxy-1,4-dihydro-2H-isoquinolin-3-one] | 2.31 µM | 0.0023 µM
13 | COc1cc2c(cc1OC(C)C)[C@H](c1ccc(Cl)cc1)N(c1ccc(C(C)(O)c3ccc(NC(C)=O)cc3)cn1)C(=O)C2 (stereo partly drawn) [Example 25, N-[4-(1-{6-[(S)-1-(4-Chloro-phenyl)-7-isopropoxy-6-methoxy-3-oxo-3,4-dihydro-1H-isoquinolin-2-yl]-pyridin-3-yl}-1-hydroxy-ethyl)-phenyl]-acetamide] | 19.5 µM | 0.0112 µM
14 | COc1cc2c(cc1OC(C)C)[C@H](c1ccc(Cl)cc1)N(c1ccc([C@](C)(O)C3CCN(C(C)=O)CC3)cc1)C(=O)C2 (single isomer, unassigned) [Example 54] | 36.7 µM | 0.105 µM
15 | COc1cc2c(cc1OC(C)C)[C@H](c1ccc(Cl)cc1)N(c1ccc(C(C)(O)C3CCNCC3)cc1)C(=O)C2 (stereo partly drawn) [Example 43, (S)-1-(4-Chloro-phenyl)-2-[4-(1-hydroxy-1-piperidin-4-yl-ethyl)-phenyl]-7-isopropoxy-6-methoxy-1,4-dihydro-2H-isoquinolin-3-one] | 4.99 µM | 0.0041 µM
16 | COc1cc2c(cc1OC(C)C)[C@H](c1ccc(Cl)cc1)N(c1ccc([C@@](C)(O)C3CCC(F)(F)CC3)cc1)C(=O)C2 (single isomer, unassigned) [Example 47] | 7.17 µM | 0.005 µM
17 | COc1cc2c(cc1OC(C)C)[C@H](c1ccc(Cl)cc1)N(c1ccc(C(C)(O)C3CCOCC3)c(F)c1)C(=O)C2 (mixture of isomers) [Example 35, (S)-1-(4-Chloro-phenyl)-2-{3-fluoro-4-[1-hydroxy-1-(tetrahydro-pyran-4-yl)-ethyl]-phenyl}-7-isopropoxy-6-methoxy-1,4-dihydro-2H-isoquinolin-3-one] | 1.48 µM | 0.0025 µM
18 | COc1cc2c(cc1OC(C)C)[C@H](c1ccc(Cl)cc1)N(c1ccc(C(C)(O)C3CCS(=O)(=O)CC3)cc1)C(=O)C2 (stereo partly drawn) [Example 166, (S)-1-(4-Chloro-phenyl)-2-{4-[1-(1,1-dioxo-hexahydro-1-thiopyran-4-yl)-1-hydroxy-ethyl]-phenyl}-7-isopropoxy-6-methoxy-1,4-dihydro-2H-isoquinolin-3-one] | 7.78 µM | 0.00735 µM
19 | COc1ccc(C(O)c2ccc(N3C(=O)Cc4cc(OC)c(OC(C)C)cc4[C@@H]3c3ccc(Cl)cc3)cc2)cc1 (stereo partly drawn) [Example 4, (S)-1-(4-Chloro-phenyl)-2-{4-[hydroxy-(4-methoxy-phenyl)-methyl]-phenyl}-7-isopropoxy-6-methoxy-1,4-dihydro-2H-isoquinolin-3-one] | 17.3 µM | 0.0107 µM
20 | CNC(=O)COc1cc2c(cc1OC(C)C)[C@H](c1ccc(Cl)cc1)N(c1ccc(C(C)(O)C3CCOCC3)cc1)C(=O)C2 (stereo partly drawn) [Example 148, 2-((S)-1-(4-Chloro-phenyl)-2-{4-[1-hydroxy-1-(tetrahydro-pyran-4-yl)-ethyl]-phenyl}-7-isopropoxy-3-oxo-1,2,3,4-tetrahydro-isoquinolin-6-yloxy)-N-methyl-acetamide] | 2.64 µM | 0.0067 µM
